Entries after “also recorded” stand apart in the source; their conditions may differ. A value given as a limit tells only on which side of the number the result lay.

What is called IC50 is the point on the concentration scale where inhibition reaches its midpoint. The low end stands for inhibition by little substance, the high end for a need for much substance.

For data set [1], the system named is Epidermal growth factor receptor (EGFR). Briefly: EGFR autophosphorylation immunoprecipitation kinase assay. Format: biochemical. The text has this: The p210^bcr-abl kinase, src kinase and cdc-2 kinase were immunoprecipitated from K562 cells. The p145^abl kinase was immunoprecipitated from PC3M cells, PDGF receptor kinase from 3T3 cells, and EGF receptor kinase from A431 cells. MAP kinase was utilized as a pure protein and lck kinase was immunoprecipitated from peripheral blood lymphocytes of a normal volunteer.
Epidermal growth factor receptor (EGFR) was immunoprecipitated with 10 ,g anti-EGFR antibody (clone LA1) and human recombinant epidermal growth factor (both from Upstate Biotechnology Inc., Lake Placid, N.Y.). The assay was performed as described (17) but without removing the EGFR from the protein A-antibody solid support. Instead, epidermal growth factor, at a final concentration of 100 nM, was added to the kinase reaction mixture. Platelet derived growth factor receptor (DGFR) was immunoprecipitated with anti-human type A/type B PDGFR antibody (Upstate Biotechnology Inc.) and immune complex kinase assays performed as referenced (18) except that protein A-Sepharose coated with rabbit anti-mouse immunoglobulin was used instead of formalin-fixed Staphylococcus aureus to bind PDGFR-antibody conjugates. C-src was immunoprecipitated with anti-v-src antibody (Ab-1; Oncogene Science) and assayed as previously described (19) with the addition of enolase as exogenous substrate. […]

Another data set concerns p210^bcr-abl kinase. Kind of data set: Phosphorylation of exogenous substrate enolase by p210bcr-abl. Format: biochemical, human. The protocol: (§1) Immunoprecipitation kinase assays of p210^bcr-abl p145^abl were performed as described, with modifications (15). Briefly, for p210^bcr-abl, 1 μg of anti-bcr antibody (clone 7C6, Oncogene Science, Uniondale, N.Y.) was added to lysates prepared from 0.5-1×10^6 K562 cells. For p145^abl, 1 μg of anti-c-abl antibody (clone 24-21), which binds to the C-terminal domain of p145^abl, was added to lysates prepared from 5×10^6 PC3M cells. After incubating 1 hour at 4° C., complexes were precipitated by incubating with protein A-Sepharose coated with rabbit anti-mouse immunoglobulin (Cappel Research Products, Durham, N.C.) for 30 minutes. The complexes were then washed as follows: ABL lysis buffer×2, PBS×1, and ABL assay buffer×1 (24 mM imidazole, pH 7.2, 1 mg/ml bovine serum albumin, and 10 mM MnCl). For p145^abl assays ABL assay buffer contained 20 mM MnCl. To access the activity of p210^bcr-abl on substrate phosphorylation, acid inactivated enolase (Sigma Chemical Co., St. Louis, Mo.) was added as described (15).
ODNs were added to kinase reaction buffers not more than 5 minutes prior to the addition of ATP. […]
P210^bcr-abl from K562 cells was immunoprecipitated and kinase assays performed in the presence or absence of 1 μM BCR-AS with varying amounts of enolase present. […] Note that inhibition of autophosphorylation can be readily seen in the absence of enolase (see lanes 5 and 10).

Data set [2] concerns p210^bcr-abl kinase in K562 cells. Briefly: Immunoprecipitation kinase assay of p210bcr-abl from ODN treated K562 cells. Format: cell-based, human. Conditions: K562 cells incubated 3 days with 50 μM ODN, washed. The protocol:
as §1
ODNs were added to kinase reaction buffers not more than 5 minutes prior to the addition of ATP. Reactions were initiated by the addition of [γ^-32 P] ATP (3000 Ci/mmole; Amersham Corp., Arlington Heights, Ill.) and quenched by the addition of 5× gel loading buffer and heating to 95° C. Kinase reactions were run for 1-10 minutes at room temperature, except for EGFR, p145^abl, and MAP kinase, which were run at 30° C. The products were then electrophoresed on SDS-polyacrylamide gels: 7% for p210^bcr-abl, EGFR, and PDGFR, 8% for p145^abl, 10% for src, lck, and cdc-2 kinase, and 12% for MAP kinase. Gels were dried and reaction products were visualized by direct autoradiography at -70° C. with Kodak X-OMAT AR film. To determine the inhibitory concentration 50, i.e., the concentration required to inhibit enzyme activity by 50% (IC50) and Ki values, gel slices containing the band of interest were excised and analyzed by Cerenkov counting.
The effects of ODN1 on a cellular system were assessed. […] After 3 days, cells were washed and p210^bcr-abl kinase activity was measured. […] Neither cellular p210^bcr-abl protein content nor cell growth was affected by ODN treatment (data not shown).

Data set [3] relates to cellular phosphotyrosine content of K562 cells. Briefly: Western analysis of total cellular phosphotyrosine content after electroporation of K562 cells. Format: cell-based, human. Conditions: K562 cells electroporated with 100 μM ODN, one hour later. The protocol:
One hundred micrograms of protein from cell lysates were separated on a 7% SDS polyacrylamide gel. Transfer was performed overnight at 50 volts, 4° C., in a 0.2 M glycine, 25 mM Tris, pH 8.3, 0.15% SDS, 20% methanol buffer, onto […] nitrocellulose (Schleicher and Schuell Inc.). For cellular phosphotyrosine blots, Western probing was performed as described previously, with modifications (SARTOR, et al, 1991). Briefly, membranes were blocked for 2 hours with 5% albumin in TTBS (20 mM Tris HCL, pH 7.6; 0.05% Tween 20; 0.9% sodium chloride), probed for 1 hour with antiphosphotyrosine antibody (Upstate Biotechnology Inc., Lake Placid, N.Y.) diluted 1:500 in TTBS, followed by rabbit anti-mouse antibody (Cappel Research Products) and then [^125 I] protein A Sepharose (Amersham Corp., Arlington Heights, Ill.). Membranes were exposed to Kodak X-OMAT AR film overnight at -70° C. with intensifying screens.
(§2) Electroporation was performed as described (40). Briefly, 1-5×10^6 cells in 1 ml of RPMI 1640 with 10% fetal calf serum were placed into 0.4 cm gap electroporation chambers and electroporated with a Cell-Porator Electroporation System 1 (all from GIBCO BRL, Grand Island, N.Y.) at 800 microfarrads, 300 volts, at room temperature. Cells were then incubated at 37° C. for 1 hour before manipulation.
In K562 cells p210^bcr-abl is a major kinase responsible for protein tyrosine phosphorylation (38, 39). Changes in enzyme activity are therefore reflected by changes in cellular phosphotyrosine content.

Data set [4] has as its system p210^bcr-abl protein level in K562 cells. Briefly: Western analysis of p210bcr-abl protein level in ODN treated K562 cells. Format: cell-based, human. Conditions: one hour after electroporation with 100 μM ODN. The procedure:
For p210^bcr-abl Western analysis, probing was carried out with the ECL Western blotting kit (Amersham) according to manufacturer's instructions. Briefly, membranes were blocked in 5% non-fat dry milk in TTBS for 1 hour, incubated with anti-p210^bcr-abl antibody (clone 8E9, Pharmingen, San Diego, Calif.) diluted 1:500 in TTBS for 1 hour, with sheep anti-mouse horseradish peroxidase-linked antibody (diluted 1:1000) for 1 hour, and lastly incubated in a luminol based detection solution for 1 minute. Membranes were exposed to Kodak X-OMAT AR film for various time periods.
as §2

For “5'-GTCCACCATGGCGCGGCCGGC-3' [ODN1] (phosphorothioate caps, further chemistry not given here) [21mer ODN complementary to nucleotides -12 to +9 of the p210bcr-abl mRNA, phosphorothioate capped unless otherwise specified]”, in data set [1] (Cerenkov counting of excised gel slices), the 50% inhibitory concentration (IC50) was more than 100 µM. Besides, the “inhibition of EGF receptor (in words)” value in data set [1] (ODN1 concentrations greater than 2 logs above the Ki for p210^bcr-abl) is on record as “not significantly inhibited”. For the same substance, the “phosphorylation of enolase by p210^bcr-abl” value in the data set on p210^bcr-abl kinase (1 μM BCR-AS, varying amounts of enolase, three minute reaction) is “no effect”. Besides, the “inhibition of enolase phosphorylation by p210^bcr-abl” value in the data set with p210^bcr-abl kinase (ODN1 concentrations of up to 50 μM) was “no significant inhibition”. The “p210^bcr-abl kinase activity of ODN treated K562 cells” value in data set [2] is on record as “significantly decreased”; in data set [2] (listed as BCR-AS), “reduction”. The results for the “total cellular protein phosphotyrosine content” value in data set [3] (listed as BCR-AS) and in data set [3] (listed as BCR-AS phosphorothioate capped) were “dropped significantly; also recorded: reduced protein phosphotyrosine content” and “equally effective”, respectively. In addition, the “p210^bcr-abl protein level” value in data set [4] was “no decrement”.
